Values of other authors as cited in PMC6838683, “Discovery of Human Signaling Systems: Pairing Peptides to G Protein-Coupled Receptors” (Cell, 2019).
Where two headings read alike, the source gives them in different places. Residues, ends and D or L forms follow the SMILES beside them. No end group written: not given here.

Target: human GPCRs
Parameters: method as in Guide to Pharmacology database
Conditions: max reported value, ref Guide to Pharmacology database, cited from earlier work
Excerpt: Supplement mmc1.xlsx, sheet "HumanGPCRLigands" | column: pKi_value; pKd_value; pEC50_value; pIC50_value

[1] = receptor TACR1 (nk1r_human, P25103)
[2] = receptor TACR2 (nk2r_human, P21452)
[3] = receptor TACR3 (nk3r_human, P29371)
[4] = receptor taar1_human (TAAR1, Q96RJ0)
[5] = receptor AVPR1A (v1ar_human, P37288)
[6] = receptor AVPR1B (v1br_human, P47901)
[7] = receptor AVPR2 (v2r_human, P30518)
[8] = receptor OXTR (oxyr_human, P30559)
[9] = receptor S1PR1 (s1pr1_human, P21453)
[10] = receptor S1PR2 (s1pr2_human, O95136)
[11] = receptor S1PR3 (s1pr3_human, Q99500)
[12] = receptor S1PR4 (s1pr4_human, O95977)
[13] = receptor gasr_human (CCKBR, P32239)
[14] = receptor CCR2 (ccr2_human, P41597)
[15] = receptor CCR3 (ccr3_human, P51677)
[16] = receptor CCR5 (ccr5_human, P51681)
[17] = receptor CCR1 (ccr1_human, P32246)
[18] = receptor CCR7 (ccr7_human, P32248)

Compound: CSCC[C@H](NC(=O)[C@H](CC(C)C)NC(=O)CNC(=O)[C@@H](NC(=O)[C@H](Cc1ccccc1)NC(=O)[C@H](Cc1ccccc1)NC(=O)[C@H](CC(=O)O)NC(=O)[C@H](Cc1cnc[nH]1)NC(=O)[C@H](CCSC)NC(=O)[C@@H](N)CC(=O)O)C(C)C)C(N)=O [neurokinin B]
- pKi_value [1]: 6.4
- pKi_value [2]: 7.7
- pEC50_value [3]: 8.4
- pKi_value [3]: 9.2

Compound: CSCC[C@H](NC(=O)CNC(=O)[C@@H](NC(=O)CNC(=O)[C@@H](NC(=O)CNC(=O)[C@H](CC(N)=O)NC(=O)[C@H](CCCNC(=N)N)NC(=O)[C@H](Cc1ccccc1)NC(=O)[C@@H](N)CO)C(C)C)[C@@H](C)O)C(=O)N[C@@H](CCCCN)C(=O)N[C@@H](CCCCN)C(=O)N[C@H](C(=O)N[C@@H](CO)C(=O)N[C@@H](Cc1ccccc1)C(=O)N[C@@H](CCC(N)=O)C(=O)N[C@@H](CCCNC(=N)N)C(=O)N[C@@H](C)C(=O)N[C@@H](CCCCN)C(=O)N[C@@H](CO)C(=O)O)[C@@H](C)O [neuropeptide S] (H-SFRNGVGTGMKKTSFQRAKS-OH)
- pEC50_value (receptor npsr1_human (NPSR1, Q6W5P4)): 8

Compound: NCC(O)c1ccc(O)cc1 (stereo not shown) [octopamine]
- pEC50_value [4]: 5.8

Compound: CC[C@H](C)[C@H](NC(=O)[C@H](CC(C)C)NC(=O)[C@@H](NC(=O)[C@@H](N)CCSC)[C@@H](C)O)C(=O)NCC(=O)N[C@@H](C)C(=O)N[C@@H](C)C(=O)N[C@@H](Cc1cnc[nH]1)C(=O)N[C@@H](CC(N)=O)C(=O)NCC(=O)N[C@@H](CO)C(=O)N[C@@H](C)C(=O)N[C@@H](CCC(N)=O)C(=O)N[C@@H](CC(C)C)C(=O)N[C@@H](CC(C)C)C(=O)N[C@@H](CCCN=C(N)N)C(=O)N[C@@H](CCC(N)=O)C(=O)N[C@@H](CC(C)C)C(=O)N[C@@H](CCCN=C(N)N)C(=O)NCC(=O)N[C@@H](CCC(N)=O)C(=O)N[C@@H](CC(C)C)C(=O)NCC(=O)N1CCC[C@H]1C(=O)N1CCC[C@H]1C(=O)NCC(=O)N[C@@H](CO)C(=O)N[C@@H](CCCN=C(N)N)C(N)=O [orexin-B] (H-MTLIGAAHNGSAQLLRQLRGQLGPPGSR-NH2)
- pEC50_value (receptor HCRTR1 (ox1r_human, O43613)): 9.2
- pEC50_value (receptor HCRTR2 (ox2r_human, O43614)): 10

Compound: CC[C@H](C)[C@@H]1NC(=O)[C@H](Cc2ccc(O)cc2)NC(=O)[C@@H](N)CSSC[C@@H](C(=O)N2CCC[C@H]2C(=O)N[C@@H](CC(C)C)C(=O)NCC(N)=O)NC(=O)[C@H](CC(N)=O)NC(=O)[C@H](CCC(N)=O)NC1=O [oxytocin]
- pKi_value [5]: 8.3
- pKi_value [6]: 7
- pKi_value [7]: 6.8
- pKi_value [8]: 9.6

Compound: CCCCCCCCCCCCC/C=C/[C@@H](O)[C@@H](N)COP(=O)(O)O [sphingosine 1-phosphate]
- pEC50_value [9]: 9.4
- pKd_value [9]: 9.4
- pEC50_value [10]: 8.5
- pKd_value [10]: 7.7
- pEC50_value [11]: 9.8
- pKd_value [11]: 9.6
- pEC50_value [12]: 8.1
- pIC50_value [12]: 7
- pEC50_value (receptor S1PR5 (s1pr5_human, Q9H228)): 8.9
- pEC50_value (receptor gpr3_human (GPR3), Class A orphans): 7.7
- pEC50_value (receptor gpr12_human (GPR12), Class A orphans): 7
- pEC50_value (receptor gpr63_human (GPR63), Class A orphans): 6.2
- pEC50_value (receptor p2y10_human (P2RY10), Class A orphans): 7.3

Compound: CSCC[C@H](NC(=O)[C@H](CC(C)C)NC(=O)CNC(=O)[C@H](Cc1ccccc1)NC(=O)[C@H](Cc1ccccc1)NC(=O)[C@H](CCC(N)=O)NC(=O)[C@H](CCC(N)=O)NC(=O)[C@@H]1CCCN1C(=O)[C@H](CCCCN)NC(=O)[C@@H]1CCCN1C(=O)[C@@H](N)CCCN=C(N)N)C(N)=O [substance P]
- pKi_value [1]: 10.3
- pKi_value [2]: 6.9
- pKi_value [3]: 6

Compound: O=C(O)CCC(=O)O [succinic acid]
- pEC50_value (receptor sucr1_human (SUCNR1), Succinate receptors): 4.7

Compound: NCCc1ccc(O)cc1 [tyramine]
- pEC50_value [4]: 6.7

Compound: O=c1ccn([C@@H]2O[C@H](COP(=O)(O)OP(=O)(O)O)[C@@H](O)[C@H]2O)c(=O)[nH]1 [uridine diphosphate]
- pEC50_value (receptor p2ry6_human (P2RY6), P2Y receptors): 6.5

Compound: CC(C)[C@H](NC(=O)[C@@H]1CSSC[C@H](NC(=O)[C@H](CC(=O)O)NC(=O)[C@@H]2CCCN2C(=O)[C@@H](NC(=O)[C@@H](N)CCC(=O)O)[C@@H](C)O)C(=O)N[C@@H](Cc2ccccc2)C(=O)N[C@@H](Cc2c[nH]c3ccccc23)C(=O)N[C@@H](CCCCN)C(=O)N[C@@H](Cc2ccc(O)cc2)C(=O)N1)C(=O)O [urotensin-II]
- pKi_value (receptor UTS2R (ur2r_human, Q9UKP6)): 8.6

Compound: NC(=O)CC[C@@H]1NC(=O)[C@H](Cc2ccccc2)NC(=O)[C@H](Cc2ccc(O)cc2)NC(=O)[C@@H](N)CSSC[C@@H](C(=O)N2CCC[C@H]2C(=O)N[C@@H](CCCN=C(N)N)C(=O)NCC(N)=O)NC(=O)[C@H](CC(N)=O)NC1=O [vasopressin]
- pKi_value [5]: 9.3
- pKi_value [6]: 9.5
- pKi_value [7]: 9.1
- pKi_value [8]: 9.3

Compound: O=C(O)CCC(=O)C(=O)O [α-ketoglutaric acid]
- pEC50_value (receptor oxgr1_human (OXGR1), Oxoglutarate receptors): 4.5

Compound: C[C@@H](O)CC(=O)O [β-D-hydroxybutyric acid]
- pEC50_value (receptor hcar2_human (HCAR2), Hydroxycarboxylic acid receptors): 3.1

Compound: NCCC(=O)O [β-alanine]
- pEC50_value (receptor mrgrd_human (MRGPRD), Class A orphans): 4.8

Compound: NCCc1ccccc1 [β-phenylethylamine]
- pEC50_value [4]: 7

Compound: (-)-adrenaline
- pKi_value (receptor ada1a_human (ADRA1A, P35348)): 6.5
- pKi_value (receptor ada1b_human (ADRA1B, P35368)): 6.5
- pKi_value (receptor ada1d_human (ADRA1D, P25100)): 7.2
- pKi_value (receptor ada2a_human (ADRA2A, P08913)): 7.4
- pKi_value (receptor ada2b_human (ADRA2B, P18089)): 5.2
- pKi_value (receptor ada2c_human (ADRA2C, P18825)): 5.8
- pKi_value (receptor adrb1_human (ADRB1, P08588)): 6
- pKi_value (receptor adrb2_human (ADRB2, P07550)): 6.2
- pKi_value (receptor adrb3_human (ADRB3, P13945)): 3.9

Compound: Big endothelin-1 (CSCSSLMDKECVYFCHLDIIWVNTPEHVVPYGLGSPRS; not fully specified; ends and bridges not checked; UniProt P05305 53-90, looked up)
- pIC50_value (receptor ednra_human (EDNRA, P25101)): 8.5

Compound: CCK-4
- pIC50_value [13]: 7.5

Compound: CCK-8
- pIC50_value [13]: 10

Compound: CCL2
- pIC50_value [14]: 10.2
- pKi_value [15]: 7.8
- pKi_value [16]: 7.5

Compound: CCL3
- pKi_value [17]: 10.2
- pKi_value [16]: 8.9

Compound: CCL5
- pKi_value [17]: 8.2
- pKi_value [15]: 9.3
- pKi_value [16]: 9.7
- pEC50_value (receptor gpr75_human (GPR75), Class A orphans): 9.6

Compound: CCL7
- pKi_value [17]: 8.1
- pIC50_value [14]: 8.7
- pKi_value [15]: 9.2
- pKi_value [16]: 7.5

Compound: CCL11
- pIC50_value [14]: 7.7
- pIC50_value [15]: 9
- pKi_value [15]: 10
- pIC50_value [16]: 7.7

Compound: CCL13
- pIC50_value [14]: 8.7
- pIC50_value [15]: 10.3

Compound: CCL19
- pIC50_value [18]: 9
- pKd_value [18]: 10
- pIC50_value (receptor CCRL2 (ccrl2_human, O00421)): 7.4

Compound: CCL20
- pIC50_value (receptor CCR6 (ccr6_human, P51684)): 8.5

Compound: CCL26
- pIC50_value [14]: 8.5
- pIC50_value [15]: 8.9

Compound: CST-17
- pKi_value (receptor SSTR1 (ssr1_human, P30872)): 9.6
- pKi_value (receptor SSTR2 (ssr2_human, P30874)): 9.3
- pKi_value (receptor SSTR3 (ssr3_human, P32745)): 9.9
- pKi_value (receptor SSTR4 (ssr4_human, P31391)): 9.6
- pKi_value (receptor SSTR5 (ssr5_human, P35346)): 10.2
